Calls of active or inactive are those of the source. No rule for the calls is given here.
System: CCHFV L protein vOTU protease domain (Crimean-Congo hemorrhagic fever virus)
Assay: CCHFV vOTU inhibition, late-stage follow-up, biochemical, fluorescence, Ub-AMC substrate, assay provider (AID 743500)
Conditions: Recombinant vOTU, Ub-AMC cleavage fluorescence, hits give high values

## O=C(NC1=CC(=O)c2ccccc2C1=O)c1ccccc1
At 12.37 µM
  inhibition: 48.8%

## CCn1nc(/C=C/c2ccccc2)nc2c(=O)n(C)c(=O)nc1-2
At 0.49 µM
  inhibition: 99%

## O=C(NC1=C(NC2CCS(=O)(=O)C2)C(=O)c2ccccc2C1=O)c1ccccc1 (stereo not drawn)
At 14.2 µM
  inhibition: 49.8%

## Cc1ccc(NC2=CC(=O)C(=O)c3ccccc32)cc1
At 12.24 µM
  inhibition: 85.2%

## O=C1C=C(Nc2ccccc2)c2ccccc2C1=O
At 15.55 µM
  inhibition: 80.2%

## Cc1c(Cl)cnc(NC(=O)COC(=O)c2ccc([N+](=O)[O-])s2)c1Cl
At 20.44 µM
  inhibition: 55.3%

## O=C(COC(=O)c1ccc([N+](=O)[O-])s1)Nc1ccc(F)cc1
At 26.34 µM
  inhibition: 45.3%

## O=C1Cc2ccccc2C(=O)N1Cc1ccccc1
At 1.31 µM
  inhibition: 49.6%

## CC1(C)C=C2C(=NN(c3ccccc3)C(N)=C2C#N)CO1
At 23.49 µM
  inhibition: 82.1%

## CC1CCCC(NC(=O)COC(=O)c2ccc([N+](=O)[O-])s2)C1C (stereo not drawn)
At 31.32 µM
  inhibition: 22.6%

## O=c1[nH]c(Nc2ccccc2)cc2cc(Br)ccc12
At 1.45 µM
  inhibition: 15.8% (inactive)

## COC(CNC(=O)c1ccc2c3c(onc13)-c1ccccc1C2=O)OC
At 24.19 µM
  inhibition: 51.7%

## NS(=O)(=O)c1ccc(NC2=CC(=O)C(=O)c3ccccc32)cc1
At 11.51 µM
  inhibition: 71.8%

## O=C1Cc2ccccc2C(=O)N1
At 0.6 µM
  inhibition: 57.1%

## O=C(OCc1nnc(-c2ccccc2)o1)c1ccc([N+](=O)[O-])s1
At 26.04 µM
  inhibition: 55.6%

## O=C(c1ccco1)[C@@H]1[C@@H]2C(=O)N(c3ccc(Br)cc3)C(=O)[C@@H]2C2c3ccccc3C=CN21 (stereo partly drawn)
At 11.01 µM
  inhibition: 79.7%

## COc1ccc2noc3c2c1C(=O)c1ccccc1-3
At 6.28 µM
  inhibition: 12.4% (inactive)

## O=C(/C=C/c1ccc(O)cc1)c1ccc(NC2=C(N3CCCCC3)C(=O)c3ccccc3C2=O)cc1
At 10.17 µM
  inhibition: 41%

## Cc1ccc(N2C(=O)[C@@H]3[C@H](C2=O)C2c4ccccc4C=CN2[C@@H]3C(=O)c2ccco2)cc1 (stereo partly drawn)
At 5.2 µM
  inhibition: 41.3%

## CCOC(=O)N=Nc1c2ccccc2c2nc3no[nH]c3nc12
At 7.75 µM
  inhibition: 26.4%

## COc1ccccc1NC(=O)COC(=O)c1ccc([N+](=O)[O-])s1
At 35.07 µM
  inhibition: 53.8%

## NS(=O)(=O)c1ccc(NC(=O)COC(=O)c2ccc([N+](=O)[O-])s2)cc1
At 29.01 µM
  inhibition: 42.6%

## O=C(COC(=O)c1ccc([N+](=O)[O-])s1)NCc1ccc(F)cc1
At 40.58 µM
  inhibition: 41%

## NC1=C(Cl)C(=O)c2ccc(S(N)(=O)=O)cc2C1=O
At 0.39 µM
  inhibition: 63.1%

## COc1cc(NC(=O)COC(=O)c2ccc([N+](=O)[O-])s2)cc(OC)c1OC
At 21.72 µM
  inhibition: 44.2%

## COc1cc(Br)c(C(=O)c2nccc3cc(OC)c(OC)cc23)cc1OC
At 1.13 µM
  inhibition: 19.1% (inactive)

## COC1=C(N)C(=O)c2nc(C)ccc2C1=O
At 4.98 µM
  inhibition: 71.9%

## O=C(COC(=O)c1ccc([N+](=O)[O-])s1)Nc1ncc(C(F)(F)F)cc1Cl
At 27.79 µM
  inhibition: 42.1%

## CCc1cc[n+](C2=C(NS(=O)(=O)c3cccs3)C(=O)c3ccccc3C2=O)cc1
At 14.16 µM
  inhibition: 18.8% (inactive)

## Nc1cc2c(cc1Br)[nH]c(=O)c1ccccc12
At 4.57 µM
  inhibition: 12.7% (inactive)

## CC1COCC(C)N1C1=C(Cl)C(=O)c2ccccc2C1=O (stereo not drawn)
At 14.67 µM
  inhibition: 23.4%

## Cn1nc(-c2ccccn2)nc2c(=O)n(C)c(=O)nc1-2
At 1.16 µM
  inhibition: 94%

## Cc1ccc2c(c1C)-c1c(ccc(C)c1C)C(=O)C2=O
At 18.9 µM
  inhibition: 66.2%

— PubChem BioAssay AID743500 (The Scripps Research Institute Molecular Screening Center, 2014)
